Reference: ChEMBL document CHEMBL5236638, “Optimization of First-in-Class Dual-Acting FFAR1/FFAR4 Allosteric Modulators with Novel Mode of Action” (ACS Med Chem Lett, 2022)

How the values were obtained:
Type in all cases: cell-based
[1] = molecular target: Free fatty acid receptor 1 (Homo sapiens, UniProt O14842); assay: Agonist activity at N-terminal FLAG tagged human FFAR1 transfected in African green monkey COS-7 cells assessed as accumulation of inositol phosphate incubated for 90 mins by TopCount NXT counter based analysis
[2] = molecular target: T1, Free fatty acid receptor 4 (Homo sapiens, UniProt Q5NUL3); assay: Agonist activity at N-terminal FLAG tagged human FFAR4 transfected in African green monkey COS-7 cells assessed as accumulation of inositol phosphate incubated for 90 mins by TopCount NXT counter based analysis
T1 sequence (Q5NUL3 whole entry): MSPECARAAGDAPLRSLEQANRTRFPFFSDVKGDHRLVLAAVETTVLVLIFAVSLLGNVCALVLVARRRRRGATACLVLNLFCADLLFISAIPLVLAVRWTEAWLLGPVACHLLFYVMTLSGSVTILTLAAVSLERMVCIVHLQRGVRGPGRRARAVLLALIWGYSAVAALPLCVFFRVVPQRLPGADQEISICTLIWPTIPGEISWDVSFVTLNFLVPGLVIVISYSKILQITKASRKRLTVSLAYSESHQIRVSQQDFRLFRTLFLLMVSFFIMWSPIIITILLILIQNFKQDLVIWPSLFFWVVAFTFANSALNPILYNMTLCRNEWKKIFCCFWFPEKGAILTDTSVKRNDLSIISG

[3] = molecular target: T2, Free fatty acid receptor 4 (Homo sapiens) (UniProt Q5NUL3); assay: Agonist activity at N-terminal FLAG tagged human FFAR4 transfected in African green monkey COS-7 cells assessed as accumulation of inositol phosphate at 10 uM incubated for 90 mins by TopCount NXT counter based analysis relative to control
T2 sequence (whole entry): T1 sequence (Q5NUL3 whole entry)

Sequence of Free fatty acid receptor 1 (O14842 whole entry): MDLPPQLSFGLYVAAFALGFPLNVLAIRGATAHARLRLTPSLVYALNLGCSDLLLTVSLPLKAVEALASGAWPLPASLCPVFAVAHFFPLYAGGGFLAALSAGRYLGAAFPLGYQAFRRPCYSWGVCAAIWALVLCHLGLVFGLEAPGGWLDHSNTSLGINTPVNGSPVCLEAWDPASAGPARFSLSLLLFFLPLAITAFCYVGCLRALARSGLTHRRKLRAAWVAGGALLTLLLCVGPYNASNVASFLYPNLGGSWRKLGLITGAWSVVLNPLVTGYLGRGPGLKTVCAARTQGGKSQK

Structure (SMILES) | EC50 [1] | EC50 [2] | Emax [3] | Emax ([3]; filed as agonist)
CCCc1cc(=O)oc2cc(OCc3nc(N)nc(Nc4ccc(C)cc4)n3)ccc12 | 2900 nM | – | – | –
Cc1cc(=O)oc2cc(OCc3nc(N)nc(Nc4ccc(Cl)c(Cl)c4)n3)ccc12 | 780 nM | 360 nM | – | –
COc1ccc(F)cc1CCNc1nc(N)nc(COc2cc(C)cc(N3CCCC3=O)c2)n1 | 469 nM | 134 nM | 30% | –
Cc1cc(OCc2nc(N)nc(NCCc3ccccc3OC(F)F)n2)cc(N2CCCC2=O)c1 | 108 nM | 178 nM | 30% | –
Cc1ccc(Nc2nc(N)nc(COc3ccc4c(C(F)F)cc(=O)oc4c3)n2)cc1 | 3180 nM | 1570 nM | 27% | –
Cc1cc(OCc2nc(N)nc(NCCc3cc(Cl)cc(Cl)c3)n2)cc(N2CCCC2=O)c1 | 4 nM | 7 nM | – | 49%
Cc1cc(OCc2nc(N)nc(NCCc3ccccc3)n2)cc(N2CCCC2=O)c1 | 25 nM | 33 nM | 38% | –
Cc1ccc(Nc2nc(N)nc(COc3ccc4c5c(c(=O)oc4c3)CCC5)n2)cc1 | 2220 nM | – | – | –
Cc1cc(OCc2nc(N)nc(NCCc3ccccc3C(F)(F)F)n2)cc(N2CCCC2=O)c1 | 12 nM | 10 nM | 38% | –
Cc1cc(=O)oc2cc(OCc3nc(N)nc(Nc4ccc(Cl)cc4)n3)ccc12 | 32500 nM | – | – | –
Cc1cc(OCc2nc(N)nc(NCCc3c(F)cccc3F)n2)cc(N2CCCC2=O)c1 | 3 nM | 9 nM | – | 46%
Cc1ccc(Nc2nc(N)nc(COc3cc(Cl)cc(N4CCCC4=O)c3)n2)cc1Cl | 160 nM | 150 nM | – | 43%
Cc1ccc(Nc2nc(N)nc(COc3cccc(N4CCCC4=O)c3F)n2)cc1Cl | 14100 nM | – | – | –
Cc1cc(OCc2nc(N)nc(NCCc3ccc(Cl)c(Cl)c3)n2)cc(N2CCCC2=O)c1 | 16 nM | 55 nM | 23% | –
Cc1cc(OCc2nc(N)nc(NCCc3c(C)cccc3C)n2)cc(N2CCCC2=O)c1 | 25 nM | 72 nM | – | 44%
Cc1cc(OCc2nc(N)nc(NCCc3ccccc3Cl)n2)cc(N2CCCC2=O)c1 | 6 nM | 3 nM | 33% | –
Cc1cc(OCc2nc(N)nc(NCCc3cccc(Cl)c3Cl)n2)cc(N2CCCC2=O)c1 | 3 nM | 9 nM | 31% | –
Cc1cc(OCc2nc(N)nc(NCCc3cccc(C(F)(F)F)c3)n2)cc(N2CCCC2=O)c1 | 12 nM | 10 nM | 35% | –
Cc1ccc(Nc2nc(N)nc(COc3cc(N4CCCC4=O)ccc3C(F)(F)F)n2)cc1Cl | 20100 nM | 11900 nM | – | 41%
Cc1cc(OCc2nc(N)nc(NCC3(c4cccc(Cl)c4)CC3)n2)cc(N2CCCC2=O)c1 | 48 nM | – | – | –
Cc1cc(=O)oc2cc(OCc3nc(N)nc(Nc4ccc(C(C)C)cc4)n3)ccc12 | 460 nM | 1200 nM | – | 75%
Cc1cc(OCc2nc(N)nc(NCCc3ccc(C)cc3C)n2)cc(N2CCCC2=O)c1 | 71 nM | 93 nM | 37% | –
Cc1ccc(Nc2nc(N)nc(COc3cc(OC(F)(F)F)cc(N4CCCC4=O)c3)n2)cc1Cl | – | 2190 nM | 38% | –
CCc1cc(=O)oc2cc(OCc3nc(N)nc(Nc4ccc(C)cc4)n3)ccc12 | 2640 nM | 1320 nM | 37% | –
COc1ccc(Cl)cc1CCNc1nc(N)nc(COc2cc(C)cc(N3CCCC3=O)c2)n1 | 54 nM | 53 nM | 29% | –
Cc1cc(OCc2nc(N)nc(NCCc3ccccc3F)n2)cc(N2CCCC2=O)c1 | 11 nM | – | – | –
Cc1ccc(Nc2nc(N)nc(COc3cc(N4CCCC4=O)ccc3F)n2)cc1Cl | 33100 nM | 13800 nM | 27% | –
Cc1ccc(Nc2nc(N)nc(COc3cc(C#N)cc(N4CCCC4=O)c3)n2)cc1Cl | 4170 nM | 14300 nM | 26% | –

Structure (SMILES) | EC50 [1] | EC50 [2] | Emax [3] | Emax ([3]; filed as agonist)
Cc1cc(OCc2nc(N)nc(NCCc3cccc(OC(F)F)c3)n2)cc(N2CCCC2=O)c1 | 5 nM | 10 nM | 28% | –
COc1cccc(CCNc2nc(N)nc(COc3cc(C)cc(N4CCCC4=O)c3)n2)c1 | 12 nM | 14 nM | – | 46%
COc1ccc(OCc2nc(N)nc(Nc3ccc(C)c(Cl)c3)n2)cc1N1CCCC1=O | 20200 nM | 31400 nM | – | 53%
Cc1cc(OCc2nc(N)nc(NCCc3ccccc3C)n2)cc(N2CCCC2=O)c1 | 11 nM | 17 nM | 35% | –
Cc1ccc(Nc2nc(N)nc(COc3ccc4ccc(=O)oc4c3)n2)cc1 | 1280 nM | 4390 nM | – | 49%
Cc1cc(=O)oc2cc(OCc3nc(N)nc(NCc4ccc(F)cc4)n3)ccc12 | 7820 nM | – | – | –
Cc1ccc(Nc2nc(N)nc(COc3ccc4c(C)cc(=O)oc4c3)n2)cc1C | 210 nM | – | – | –
Cc1c(Cl)cc(Nc2nc(N)nc(COc3ccc4c(C)cc(=O)oc4c3)n2)cc1Cl | 600 nM | 1270 nM | – | 68%
Cc1cc(=O)oc2cc(OCc3nc(N)nc(Nc4cccc(Cl)c4)n3)ccc12 | 1110 nM | – | – | –
Cc1cc(OCc2nc(N)nc(NCCc3ccc(C)c(Cl)c3)n2)cc(N2CCCC2=O)c1 | 7 nM | 8 nM | 32% | –
Cc1cc(OCc2nc(N)nc(NCCc3ccccc3OC(F)(F)F)n2)cc(N2CCCC2=O)c1 | 20 nM | 37 nM | 29% | –
Cc1cc(OCc2nc(N)nc(NCCc3ccc(Cl)cc3)n2)cc(N2CCCC2=O)c1 | 193 nM | – | – | –
Cc1cc(=O)oc2cc(OCc3nc(N)nc(Nc4ccc5c(c4)COC5)n3)ccc12 | 1330 nM | – | – | –
CCc1ccc(Nc2nc(N)nc(COc3ccc4c(C)cc(=O)oc4c3)n2)cc1Cl | 160 nM | 560 nM | – | 48%
Cc1ccc(Nc2nc(N)nc(COc3cc(N4CCCC4=O)ccc3C)n2)cc1Cl | 7450 nM | 18200 nM | – | 43%
Cc1cc(OCc2nc(N)nc(NCCc3cc(C)ccc3F)n2)cc(N2CCCC2=O)c1 | 3 nM | 386 nM | – | 40%
Cc1ccc(Nc2nc(N)nc(COc3cccc(N4CCCS4(=O)=O)c3)n2)cc1Cl | 9700 nM | – | – | –
Cc1cc(=O)oc2cc(OCc3nc(N)nc(Nc4ccc(F)cc4)n3)ccc12 | 18300 nM | – | – | –
Cc1cc(=O)oc2cc(OCc3nc(N)nc(Nc4ccc5ccccc5c4)n3)ccc12 | 700 nM | – | – | –
Cc1cccc(CCNc2nc(N)nc(COc3cc(C)cc(N4CCCC4=O)c3)n2)c1 | 7 nM | – | – | –
Cc1cc(OCc2nc(N)nc(NCCc3cccc(C#N)c3)n2)cc(N2CCCC2=O)c1 | 831 nM | 552 nM | 17% | –
Cc1ccc(Nc2nc(N)nc(COc3cc(N4CCCC4=O)cc(C(F)(F)F)c3)n2)cc1Cl | 3190 nM | – | – | –
COc1cc(OCc2nc(N)nc(Nc3ccc(C)c(Cl)c3)n2)cc(N2CCCC2=O)c1 | 1800 nM | 600 nM | – | 43%
Cc1cc(OCc2nc(N)nc(NCCc3cccc(S(F)(F)(F)(F)F)c3)n2)cc(N2CCCC2=O)c1 | 32 nM | – | – | 95%
Cc1cc(OCc2nc(N)nc(NCC(c3c(F)cccc3F)N(C)C)n2)cc(N2CCCC2=O)c1 (centres undefined) | 7430 nM | – | – | –
Cc1ccc(Nc2nc(N)nc(COc3cc(N4CCCC4=O)cc(C(C)(C)C)c3)n2)cc1Cl | – | 640 nM | – | –
Cc1cc(=O)oc2cc(OCc3nc(N)nc(Nc4ccc(C5CC5)cc4)n3)ccc12 | 700 nM | – | – | –
